Laboratory results: the NIST ThermoML archive (doi:10.1016/j.jct.2015.05.004)

Test: xn = mol fraction of the nth substance listed
Settings: 100 kPa, Liquid; for speed of sound: Frequency=3 MHz, Sing-around technique in a fixed-path interferometer; for mass density: Vibrating tube method

CCC(=O)O [propanoic acid] + CCCCn1cc[n+](C)c1.N#C[S-]
x2 = 0
Settings	mass density [kg/m3]	speed of sound [m/s]
293.15 K	993.33	1164.7
298.15 K	987.94	1146
303.15 K	982.54	1127.1
308.15 K	977.14	1108.3
313.15 K	971.75	1089.6

CCCCn1cc[n+](C)c1.N#C[S-] [1-butyl-3-methylimidazolium thiocyanate] + CCC(=O)O
Settings	mass density, 293.15 K [kg/m3]	mass density, 298.15 K [kg/m3]	mass density, 303.15 K [kg/m3]	mass density, 308.15 K [kg/m3]	mass density, 313.15 K [kg/m3]	speed of sound, 293.15 K [m/s]	speed of sound, 298.15 K [m/s]	speed of sound, 303.15 K [m/s]	speed of sound, 308.15 K [m/s]	speed of sound, 313.15 K [m/s]
x1 = 0.0698	1015.42	1010.77	1006.13	1001.49	996.86	1260.2	1243	1225.7	1208.3	1191
x1 = 0.1444	1031.52	1027.32	1023.13	1018.95	1014.78	1361.3	1345.7	1329.8	1313.9	1298.1
x1 = 0.2223	1042.18	1038.27	1034.37	1030.48	1026.6	1445.8	1431.2	1416.3	1401.5	1386.8
x1 = 0.306	1049.78	1046.09	1042.4	1038.73	1035.07	1514.4	1500.5	1486.3	1472.3	1458.3
x1 = 0.3989	1055.66	1052.15	1048.65	1045.17	1041.69	1571.4	1558.1	1544.6	1531.1	1517.8
x1 = 0.5022	1060.19	1057.09	1053.43	1050.09	1046.79	1619.3	1606.6	1593.7	1580.8	1568.1
x1 = 0.6068	1064.02	1061.09	1057.85	1054.64	1051.44	1662	1649.6	1637	1624.6	1612.2
x1 = 0.7166	1067.2	1064.46	1061.32	1058.2	1055.09	1700.9	1688.8	1676.4	1664.2	1652.1
x1 = 0.8561	1070.36	1067.84	1064.79	1061.76	1058.74	1742.8	1730.9	1718.9	1707	1695.1
x1 = 0.9209	1071.7	1069.3	1066.3	1063.3	1060.33	1761.8	1750	1738.1	1726.3	1714.6
x1 = 1	1072.74	1070.34	1067.37	1064.42	1061.47	1778.8	1767.2	1755.4	1743.7	1732.1
